Source: the supplement of paper PMC10307832

Legend:
Test in all cases: relative viability (nuclei count vs DMSO), 5 days (fraction); higher = more cells survive
COR-L23 = test system: COR-L23
Outline: (§1)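 Lung cancer cell lines were pin-tool dosed in 1536-well plates on the day after seeding, with either a lone drug or a fixed anchor-drug dose plus five library-drug doses (not always all listed) in √10 steps. Nuclei were counted on 4× images after 5 days. Relative viability is the ratio of treated-well to vehicle-well nuclei counts, with each value a median of duplicate plates.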

NCI-H1650 = test system: NCI-H1650
Outline: as §1

A-427 = test system: A-427
Outline: as §1

SK-MES-1 = test system: SK-MES-1
Outline: as §1

ChaGo-K-1 = test system: ChaGo-K-1
Outline: as §1

NCI-H650 = test system: NCI-H650
Outline: as §1

NCI-H1915 = test system: NCI-H1915
Outline: as §1

NCI-H3122 = test system: NCI-H3122
Outline: as §1

NCI-H661 = test system: NCI-H661
Outline: as §1

NCI-H2087 = test system: NCI-H2087
Outline: as §1

EKVX = test system: EKVX
Outline: as §1

LOU-NH91 = test system: LOU-NH91
Outline: as §1

HCC-366 = test system: HCC-366
Outline: as §1

HOP-62 = test system: HOP-62
Outline: as §1

EPLC-272H = test system: EPLC-272H
Outline: as §1

NCI-H2023 = test system: NCI-H2023
Outline: as §1

NCI-H1734 = test system: NCI-H1734
Outline: as §1

NCI-H358 = test system: NCI-H358
Outline: as §1

NCI-H1395 = test system: NCI-H1395
Outline: as §1

HCC-78 = test system: HCC-78
Outline: as §1

NCI-H838 = test system: NCI-H838
Outline: as §1

NCI-H596 = test system: NCI-H596
Outline: as §1

**Q.** With `O=C(O)CCCCC(CCSCc1ccccc1)SCc1ccccc1` (centres undefined) [CPI-613] + Cc1nc(Nc2ncc(C(=O)Nc3c(C)cccc3Cl)s2)cc(N2CCN(CCO)CC2)n1 [Dasatinib] (partner 0.075 µM) as the compound, how does the relative viability (COR-L23; first compound 5 µM) read?
**A.** 0.568

**Q.** What about the relative viability (COR-L23; first compound 15.81 µM) of the same compound?
**A.** 0.493

**Q.** What about the relative viability (COR-L23; first compound 50 µM) of the same compound?
**A.** 0.485

**Q.** What about the relative viability (COR-L23; first compound 158.11 µM) of the same compound?
**A.** 0.334

**Q.** And the relative viability (COR-L23; first compound 500 µM)?
**A.** 0.0383

**Q.** What about the relative viability (NCI-H1650; first compound 5 µM) of the same compound?
**A.** 0.353

**Q.** What about the relative viability (NCI-H1650; first compound 15.81 µM) of the same compound?
**A.** 0.285

**Q.** And the relative viability (NCI-H1650; first compound 50 µM)?
**A.** 0.312

**Q.** What about the relative viability (NCI-H1650; first compound 158.11 µM) of the same compound?
**A.** 0.082

**Q.** What about the relative viability (NCI-H1650; first compound 500 µM) of the same compound?
**A.** 0.0164

**Q.** And the relative viability (A-427; first compound 5 µM)?
**A.** 0.684

**Q.** And the relative viability (A-427; first compound 15.81 µM)?
**A.** 0.765

**Q.** What about the relative viability (A-427; first compound 50 µM) of the same compound?
**A.** 0.547

**Q.** And the relative viability (A-427; first compound 158.11 µM)?
**A.** 0.365

**Q.** What about the relative viability (A-427; first compound 500 µM) of the same compound?
**A.** 0.131

**Q.** And the relative viability (SK-MES-1; first compound 5 µM)?
**A.** 0.393

**Q.** And the relative viability (SK-MES-1; first compound 15.81 µM)?
**A.** 0.428

**Q.** What about the relative viability (SK-MES-1; first compound 50 µM) of the same compound?
**A.** 0.432

**Q.** And the relative viability (SK-MES-1; first compound 158.11 µM)?
**A.** 0.125

**Q.** And the relative viability (SK-MES-1; first compound 500 µM)?
**A.** 0.0807

**Q.** And the relative viability (ChaGo-K-1; first compound 5 µM)?
**A.** 0.583

**Q.** And the relative viability (ChaGo-K-1; first compound 15.81 µM)?
**A.** 0.594

**Q.** What about the relative viability (ChaGo-K-1; first compound 50 µM) of the same compound?
**A.** 0.594

**Q.** What about the relative viability (ChaGo-K-1; first compound 158.11 µM) of the same compound?
**A.** 0.336

**Q.** What about the relative viability (ChaGo-K-1; first compound 500 µM) of the same compound?
**A.** 0.146

**Q.** And the relative viability (NCI-H650; first compound 5 µM)?
**A.** 0.474

**Q.** And the relative viability (NCI-H650; first compound 15.81 µM)?
**A.** 0.366

**Q.** What about the relative viability (NCI-H650; first compound 50 µM) of the same compound?
**A.** 0.424

**Q.** And the relative viability (NCI-H650; first compound 158.11 µM)?
**A.** 0.345

**Q.** And the relative viability (NCI-H650; first compound 500 µM)?
**A.** 0.361

**Q.** What about the relative viability (NCI-H1915; first compound 5 µM) of the same compound?
**A.** 0.294

**Q.** What about the relative viability (NCI-H1915; first compound 15.81 µM) of the same compound?
**A.** 0.244

**Q.** And the relative viability (NCI-H1915; first compound 50 µM)?
**A.** 0.245

**Q.** And the relative viability (NCI-H1915; first compound 158.11 µM)?
**A.** 0.228

**Q.** What about the relative viability (NCI-H1915; first compound 500 µM) of the same compound?
**A.** 0.169

**Q.** What about the relative viability (NCI-H3122; first compound 5 µM) of the same compound?
**A.** 0.795

**Q.** What about the relative viability (NCI-H3122; first compound 15.81 µM) of the same compound?
**A.** 0.693

**Q.** And the relative viability (NCI-H3122; first compound 50 µM)?
**A.** 0.802

**Q.** And the relative viability (NCI-H3122; first compound 158.11 µM)?
**A.** 0.702

**Q.** And the relative viability (NCI-H3122; first compound 500 µM)?
**A.** 0.28

**Q.** And the relative viability (NCI-H661; first compound 5 µM)?
**A.** 0.863

**Q.** What about the relative viability (NCI-H661; first compound 15.81 µM) of the same compound?
**A.** 0.83

**Q.** And the relative viability (NCI-H661; first compound 50 µM)?
**A.** 0.798

**Q.** What about the relative viability (NCI-H661; first compound 158.11 µM) of the same compound?
**A.** 0.312

**Q.** And the relative viability (NCI-H661; first compound 500 µM)?
**A.** 0.155

**Q.** And the relative viability (NCI-H2087; first compound 5 µM)?
**A.** 0.809

**Q.** And the relative viability (NCI-H2087; first compound 15.81 µM)?
**A.** 0.886

**Q.** And the relative viability (NCI-H2087; first compound 50 µM)?
**A.** 0.792

**Q.** What about the relative viability (NCI-H2087; first compound 158.11 µM) of the same compound?
**A.** 0.196

**Q.** And the relative viability (NCI-H2087; first compound 500 µM)?
**A.** 0.023

**Q.** And the relative viability (EKVX; first compound 5 µM)?
**A.** 0.561

**Q.** And the relative viability (EKVX; first compound 15.81 µM)?
**A.** 0.482

**Q.** And the relative viability (EKVX; first compound 50 µM)?
**A.** 0.565

**Q.** What about the relative viability (EKVX; first compound 158.11 µM) of the same compound?
**A.** 0.466

**Q.** What about the relative viability (EKVX; first compound 500 µM) of the same compound?
**A.** 0.517

**Q.** What about the relative viability (LOU-NH91; first compound 5 µM) of the same compound?
**A.** 0.564

**Q.** And the relative viability (LOU-NH91; first compound 15.81 µM)?
**A.** 0.475

**Q.** What about the relative viability (LOU-NH91; first compound 50 µM) of the same compound?
**A.** 0.532

**Q.** And the relative viability (LOU-NH91; first compound 158.11 µM)?
**A.** 0.481

**Q.** And the relative viability (LOU-NH91; first compound 500 µM)?
**A.** 0.499

**Q.** And the relative viability (HCC-366; first compound 5 µM)?
**A.** 0.604

**Q.** And the relative viability (HCC-366; first compound 15.81 µM)?
**A.** 0.606

**Q.** What about the relative viability (HCC-366; first compound 50 µM) of the same compound?
**A.** 0.798

**Q.** What about the relative viability (HCC-366; first compound 158.11 µM) of the same compound?
**A.** 0.309

**Q.** And the relative viability (HCC-366; first compound 500 µM)?
**A.** 0.0101

**Q.** And the relative viability (HOP-62; first compound 5 µM)?
**A.** 0.625

**Q.** And the relative viability (HOP-62; first compound 15.81 µM)?
**A.** 0.68

**Q.** And the relative viability (HOP-62; first compound 50 µM)?
**A.** 0.659

**Q.** What about the relative viability (HOP-62; first compound 158.11 µM) of the same compound?
**A.** 0.521

**Q.** What about the relative viability (HOP-62; first compound 500 µM) of the same compound?
**A.** 0.0443

**Q.** And the relative viability (EPLC-272H; first compound 5 µM)?
**A.** 0.317

**Q.** What about the relative viability (EPLC-272H; first compound 15.81 µM) of the same compound?
**A.** 0.334

**Q.** What about the relative viability (EPLC-272H; first compound 50 µM) of the same compound?
**A.** 0.449

**Q.** What about the relative viability (EPLC-272H; first compound 158.11 µM) of the same compound?
**A.** 0.219

**Q.** What about the relative viability (EPLC-272H; first compound 500 µM) of the same compound?
**A.** 0.0109

**Q.** And the relative viability (NCI-H2023; first compound 5 µM)?
**A.** 0.552

**Q.** What about the relative viability (NCI-H2023; first compound 15.81 µM) of the same compound?
**A.** 0.457

**Q.** What about the relative viability (NCI-H2023; first compound 50 µM) of the same compound?
**A.** 0.483

**Q.** What about the relative viability (NCI-H2023; first compound 158.11 µM) of the same compound?
**A.** 0.0687

**Q.** And the relative viability (NCI-H2023; first compound 500 µM)?
**A.** 0.0087

**Q.** And the relative viability (NCI-H1734; first compound 5 µM)?
**A.** 0.411

**Q.** And the relative viability (NCI-H1734; first compound 15.81 µM)?
**A.** 0.47

**Q.** What about the relative viability (NCI-H1734; first compound 50 µM) of the same compound?
**A.** 0.413

**Q.** And the relative viability (NCI-H1734; first compound 158.11 µM)?
**A.** 0.301

**Q.** And the relative viability (NCI-H1734; first compound 500 µM)?
**A.** 0.105

**Q.** And the relative viability (NCI-H358; first compound 15.81 µM)?
**A.** 0.145

**Q.** What about the relative viability (NCI-H358; first compound 50 µM) of the same compound?
**A.** 0.146

**Q.** What about the relative viability (NCI-H358; first compound 158.11 µM) of the same compound?
**A.** 0.157

**Q.** And the relative viability (NCI-H358; first compound 500 µM)?
**A.** 0.0248

**Q.** What about the relative viability (NCI-H1395; first compound 5 µM) of the same compound?
**A.** 0.397

**Q.** And the relative viability (NCI-H1395; first compound 15.81 µM)?
**A.** 0.352

**Q.** And the relative viability (NCI-H1395; first compound 50 µM)?
**A.** 0.414

**Q.** And the relative viability (NCI-H1395; first compound 158.11 µM)?
**A.** 0.409

**Q.** And the relative viability (NCI-H1395; first compound 500 µM)?
**A.** 0.358

**Q.** What about the relative viability (HCC-78; first compound 5 µM) of the same compound?
**A.** 0.358

**Q.** What about the relative viability (HCC-78; first compound 15.81 µM) of the same compound?
**A.** 0.272

**Q.** What about the relative viability (HCC-78; first compound 50 µM) of the same compound?
**A.** 0.408

**Q.** And the relative viability (HCC-78; first compound 158.11 µM)?
**A.** 0.339

**Q.** And the relative viability (HCC-78; first compound 500 µM)?
**A.** 0.342

**Q.** And the relative viability (NCI-H838; first compound 5 µM)?
**A.** 0.285

**Q.** And the relative viability (NCI-H838; first compound 15.81 µM)?
**A.** 0.237

**Q.** And the relative viability (NCI-H838; first compound 50 µM)?
**A.** 0.286

**Q.** And the relative viability (NCI-H838; first compound 158.11 µM)?
**A.** 0.261

**Q.** What about the relative viability (NCI-H838; first compound 500 µM) of the same compound?
**A.** 0.243

**Q.** And the relative viability (NCI-H596; first compound 5 µM)?
**A.** 0.647

**Q.** What about the relative viability (NCI-H596; first compound 15.81 µM) of the same compound?
**A.** 0.616

**Q.** And the relative viability (NCI-H596; first compound 50 µM)?
**A.** 0.628

**Q.** What about the relative viability (NCI-H596; first compound 158.11 µM) of the same compound?
**A.** 0.465

**Q.** What about the relative viability (NCI-H596; first compound 500 µM) of the same compound?
**A.** 0.0504
